Results: ChEMBL document CHEMBL5465560, “Selectivity Literature for EUbOPEN Chemogenomic Library” (2024)

Tests used:
[1] = biological target: Dual specificity protein kinase CLK4 (Homo sapiens, UniProt Q9HAZ1); test: Selectivity interaction (KinomeScan (DiscoverX)) EUB0000229b CLK4; conditions: at 10 µM
[2] = biological target: Serine/threonine-protein kinase 24 (Homo sapiens) (UniProt Q9Y6E0); test: Selectivity interaction (Kinase panel (DSF assay)) EUB0001559a STK24
[3] = biological target: Phosphatidylinositol 4,5-bisphosphate 3-kinase catalytic subunit beta isoform (Homo sapiens) (UniProt P42338); test: Selectivity interaction (KinomeScan (DiscoverX)) EUB0000045b PIK3CB
Sequence of Phosphatidylinositol 4,5-bisphosphate 3-kinase catalytic subunit beta isoform (Homo sapiens) (P42338 whole entry, looked up, canonical isoform): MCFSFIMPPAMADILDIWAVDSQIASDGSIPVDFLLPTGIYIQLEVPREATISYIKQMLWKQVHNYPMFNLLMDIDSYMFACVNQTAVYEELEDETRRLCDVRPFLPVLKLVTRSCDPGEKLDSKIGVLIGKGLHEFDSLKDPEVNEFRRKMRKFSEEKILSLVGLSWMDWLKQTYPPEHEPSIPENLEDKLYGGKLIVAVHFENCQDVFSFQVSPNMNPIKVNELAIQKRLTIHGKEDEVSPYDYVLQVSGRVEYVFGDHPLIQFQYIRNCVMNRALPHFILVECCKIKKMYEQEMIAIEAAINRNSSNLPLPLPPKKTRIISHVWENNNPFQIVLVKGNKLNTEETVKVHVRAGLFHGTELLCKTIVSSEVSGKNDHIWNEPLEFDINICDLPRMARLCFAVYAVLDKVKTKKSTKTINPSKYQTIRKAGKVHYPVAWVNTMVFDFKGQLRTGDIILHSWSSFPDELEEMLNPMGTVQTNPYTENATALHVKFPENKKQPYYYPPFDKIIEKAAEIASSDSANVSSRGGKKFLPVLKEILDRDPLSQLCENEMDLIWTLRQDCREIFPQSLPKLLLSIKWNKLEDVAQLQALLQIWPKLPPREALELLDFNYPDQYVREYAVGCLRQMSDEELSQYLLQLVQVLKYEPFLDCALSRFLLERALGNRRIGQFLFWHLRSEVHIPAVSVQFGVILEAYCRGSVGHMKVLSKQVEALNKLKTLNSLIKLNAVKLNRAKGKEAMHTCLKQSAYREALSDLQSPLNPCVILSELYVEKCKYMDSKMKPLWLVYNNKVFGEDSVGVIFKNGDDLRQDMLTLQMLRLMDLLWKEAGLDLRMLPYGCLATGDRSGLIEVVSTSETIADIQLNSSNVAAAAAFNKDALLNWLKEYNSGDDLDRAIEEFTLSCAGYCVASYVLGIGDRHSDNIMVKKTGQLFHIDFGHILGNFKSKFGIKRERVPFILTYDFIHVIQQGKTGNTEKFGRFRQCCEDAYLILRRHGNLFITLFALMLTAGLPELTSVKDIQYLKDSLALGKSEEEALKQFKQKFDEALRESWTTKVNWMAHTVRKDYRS

[4] = biological target: [Pyruvate dehydrogenase (acetyl-transferring)] kinase isozyme 1, mitochondrial (Homo sapiens, UniProt Q15118); test: Selectivity interaction (Kinase panel (Z-LYTE Assay)) EUB0001632a PDK1; conditions: at 10 µM
[5] = biological target: Tyrosine-protein kinase HCK (Homo sapiens) (UniProt P08631); conditions: at 10 µM
Sequence of Tyrosine-protein kinase HCK (Homo sapiens) (P08631 2-526 limits assumed): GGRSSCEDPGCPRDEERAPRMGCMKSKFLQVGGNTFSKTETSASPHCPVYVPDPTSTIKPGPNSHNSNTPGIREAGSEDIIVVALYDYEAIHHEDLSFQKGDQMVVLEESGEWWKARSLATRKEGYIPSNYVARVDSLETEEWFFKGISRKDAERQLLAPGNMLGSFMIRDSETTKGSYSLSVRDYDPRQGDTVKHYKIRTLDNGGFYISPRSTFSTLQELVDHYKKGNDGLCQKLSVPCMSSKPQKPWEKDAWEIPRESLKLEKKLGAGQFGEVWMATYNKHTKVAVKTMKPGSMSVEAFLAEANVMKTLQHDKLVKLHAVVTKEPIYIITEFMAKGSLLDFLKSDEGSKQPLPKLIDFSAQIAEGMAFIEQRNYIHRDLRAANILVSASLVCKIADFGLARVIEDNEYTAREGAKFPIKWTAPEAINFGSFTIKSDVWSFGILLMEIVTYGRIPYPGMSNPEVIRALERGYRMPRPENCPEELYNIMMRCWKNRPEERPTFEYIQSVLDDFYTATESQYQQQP

[6] = biological target: Serine/threonine-protein kinase N1 (Homo sapiens, UniProt Q16512); test: Selectivity interaction (Kinase panel (33PanQinase(R) Activity Assay)) EUB0000877a PKN1
[7] = biological target: Serine/threonine-protein kinase Nek4 (Homo sapiens) (UniProt P51957); test: Selectivity interaction (KinomeScan (DiscoverX)) EUB0001619a NEK4; conditions: at 1 µM
[8] = biological target: T1, NUAK family SNF1-like kinase 1 (Homo sapiens) (UniProt O60285); test: Selectivity interaction (KinomeScan (DiscoverX)) EUB0000607a NUAK1; conditions: at 10 µM
T1 sequence (whole entry): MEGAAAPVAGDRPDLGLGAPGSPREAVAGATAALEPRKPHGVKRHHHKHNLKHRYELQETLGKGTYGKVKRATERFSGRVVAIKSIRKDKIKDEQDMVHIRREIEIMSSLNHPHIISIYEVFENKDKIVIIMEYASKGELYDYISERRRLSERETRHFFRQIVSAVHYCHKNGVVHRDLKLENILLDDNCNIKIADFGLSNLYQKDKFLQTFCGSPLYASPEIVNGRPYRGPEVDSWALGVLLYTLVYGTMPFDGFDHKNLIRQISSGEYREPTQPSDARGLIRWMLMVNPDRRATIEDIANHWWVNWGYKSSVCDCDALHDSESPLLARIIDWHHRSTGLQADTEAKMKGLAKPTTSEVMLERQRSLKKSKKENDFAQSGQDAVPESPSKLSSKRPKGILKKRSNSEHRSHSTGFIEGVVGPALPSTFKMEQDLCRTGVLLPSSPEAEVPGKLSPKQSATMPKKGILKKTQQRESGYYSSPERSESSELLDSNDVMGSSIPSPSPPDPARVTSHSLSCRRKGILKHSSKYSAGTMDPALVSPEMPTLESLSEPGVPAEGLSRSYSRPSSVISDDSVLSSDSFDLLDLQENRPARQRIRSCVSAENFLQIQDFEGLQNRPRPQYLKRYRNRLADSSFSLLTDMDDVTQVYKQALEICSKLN

[9] = biological target: Serine/threonine-protein kinase PAK 6 (Homo sapiens) (UniProt Q9NQU5); test: Selectivity interaction (KinomeScan (DiscoverX)) EUB0000607a PAK6; conditions: at 10 µM
Sequence of Serine/threonine-protein kinase PAK 6 (Homo sapiens) (Q9NQU5 whole entry, looked up): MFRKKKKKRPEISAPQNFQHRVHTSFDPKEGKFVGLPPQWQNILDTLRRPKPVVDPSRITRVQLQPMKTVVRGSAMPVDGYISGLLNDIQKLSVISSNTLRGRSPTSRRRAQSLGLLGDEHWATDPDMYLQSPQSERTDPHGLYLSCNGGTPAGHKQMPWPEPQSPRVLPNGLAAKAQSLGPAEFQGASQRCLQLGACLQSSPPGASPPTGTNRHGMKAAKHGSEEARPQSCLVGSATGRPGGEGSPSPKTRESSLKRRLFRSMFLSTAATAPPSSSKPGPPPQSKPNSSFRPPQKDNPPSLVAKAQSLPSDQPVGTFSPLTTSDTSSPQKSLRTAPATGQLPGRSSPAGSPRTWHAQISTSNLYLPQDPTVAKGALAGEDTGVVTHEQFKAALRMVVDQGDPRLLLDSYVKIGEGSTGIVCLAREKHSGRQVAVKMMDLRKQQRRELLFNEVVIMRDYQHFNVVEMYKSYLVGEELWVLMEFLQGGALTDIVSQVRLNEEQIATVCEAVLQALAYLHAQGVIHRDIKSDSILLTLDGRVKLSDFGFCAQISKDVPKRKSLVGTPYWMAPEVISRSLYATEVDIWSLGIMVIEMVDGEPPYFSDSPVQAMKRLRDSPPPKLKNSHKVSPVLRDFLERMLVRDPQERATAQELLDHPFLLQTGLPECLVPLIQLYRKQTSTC

[10] = biological target: T2, Mitogen-activated protein kinase 15 (Homo sapiens) (UniProt Q8TD08); test: Selectivity interaction (KinomeScan (DiscoverX)) EUB0000618a MAPK15; conditions: at 10 µM
T2 sequence (whole entry): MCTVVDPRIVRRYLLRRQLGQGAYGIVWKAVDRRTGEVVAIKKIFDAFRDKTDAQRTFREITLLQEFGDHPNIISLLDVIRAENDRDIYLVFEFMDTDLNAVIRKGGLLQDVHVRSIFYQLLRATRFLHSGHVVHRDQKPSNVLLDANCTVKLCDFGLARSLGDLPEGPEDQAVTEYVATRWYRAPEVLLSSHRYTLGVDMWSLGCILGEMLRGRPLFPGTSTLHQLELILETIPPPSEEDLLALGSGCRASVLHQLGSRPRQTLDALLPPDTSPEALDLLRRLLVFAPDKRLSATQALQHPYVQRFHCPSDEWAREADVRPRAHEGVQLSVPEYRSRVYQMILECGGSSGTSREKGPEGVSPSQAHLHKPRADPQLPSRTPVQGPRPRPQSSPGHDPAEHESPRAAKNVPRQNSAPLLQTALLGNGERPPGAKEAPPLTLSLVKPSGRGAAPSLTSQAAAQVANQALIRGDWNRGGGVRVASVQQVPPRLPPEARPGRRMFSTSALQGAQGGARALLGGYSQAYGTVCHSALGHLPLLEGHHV

[11] = biological target: LIM domain kinase 1 (Homo sapiens) (UniProt P53667); test: Selectivity interaction (Kinase panel (Invitrogen)) EUB0000639a LIMK1; conditions: at 200 nM
Sequence of LIM domain kinase 1 (Homo sapiens) (P53667 whole entry, looked up, the tested form may be a part): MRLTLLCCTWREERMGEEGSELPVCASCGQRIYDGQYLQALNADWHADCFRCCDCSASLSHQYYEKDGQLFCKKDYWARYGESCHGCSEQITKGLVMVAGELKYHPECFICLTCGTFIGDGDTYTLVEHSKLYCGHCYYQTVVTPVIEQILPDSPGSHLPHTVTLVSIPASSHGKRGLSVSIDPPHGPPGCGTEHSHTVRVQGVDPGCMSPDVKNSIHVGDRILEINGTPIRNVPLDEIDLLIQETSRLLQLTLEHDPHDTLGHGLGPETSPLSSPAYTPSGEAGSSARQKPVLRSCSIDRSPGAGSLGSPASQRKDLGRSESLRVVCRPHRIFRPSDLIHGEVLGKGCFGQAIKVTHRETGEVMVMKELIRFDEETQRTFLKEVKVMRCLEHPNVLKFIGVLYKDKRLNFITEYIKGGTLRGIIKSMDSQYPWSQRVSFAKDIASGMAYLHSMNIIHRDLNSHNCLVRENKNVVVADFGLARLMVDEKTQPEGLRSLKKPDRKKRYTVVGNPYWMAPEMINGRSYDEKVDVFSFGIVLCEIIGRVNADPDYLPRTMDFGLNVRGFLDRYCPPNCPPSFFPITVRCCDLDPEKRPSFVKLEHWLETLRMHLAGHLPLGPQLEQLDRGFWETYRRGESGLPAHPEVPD

[12] = biological target: Hepatocyte growth factor receptor (Homo sapiens, UniProt P08581); test: Selectivity interaction (Kinase panel (Invitrogen)) EUB0000639a MET; conditions: at 200 nM
Sequence of Hepatocyte growth factor receptor (P08581 whole entry): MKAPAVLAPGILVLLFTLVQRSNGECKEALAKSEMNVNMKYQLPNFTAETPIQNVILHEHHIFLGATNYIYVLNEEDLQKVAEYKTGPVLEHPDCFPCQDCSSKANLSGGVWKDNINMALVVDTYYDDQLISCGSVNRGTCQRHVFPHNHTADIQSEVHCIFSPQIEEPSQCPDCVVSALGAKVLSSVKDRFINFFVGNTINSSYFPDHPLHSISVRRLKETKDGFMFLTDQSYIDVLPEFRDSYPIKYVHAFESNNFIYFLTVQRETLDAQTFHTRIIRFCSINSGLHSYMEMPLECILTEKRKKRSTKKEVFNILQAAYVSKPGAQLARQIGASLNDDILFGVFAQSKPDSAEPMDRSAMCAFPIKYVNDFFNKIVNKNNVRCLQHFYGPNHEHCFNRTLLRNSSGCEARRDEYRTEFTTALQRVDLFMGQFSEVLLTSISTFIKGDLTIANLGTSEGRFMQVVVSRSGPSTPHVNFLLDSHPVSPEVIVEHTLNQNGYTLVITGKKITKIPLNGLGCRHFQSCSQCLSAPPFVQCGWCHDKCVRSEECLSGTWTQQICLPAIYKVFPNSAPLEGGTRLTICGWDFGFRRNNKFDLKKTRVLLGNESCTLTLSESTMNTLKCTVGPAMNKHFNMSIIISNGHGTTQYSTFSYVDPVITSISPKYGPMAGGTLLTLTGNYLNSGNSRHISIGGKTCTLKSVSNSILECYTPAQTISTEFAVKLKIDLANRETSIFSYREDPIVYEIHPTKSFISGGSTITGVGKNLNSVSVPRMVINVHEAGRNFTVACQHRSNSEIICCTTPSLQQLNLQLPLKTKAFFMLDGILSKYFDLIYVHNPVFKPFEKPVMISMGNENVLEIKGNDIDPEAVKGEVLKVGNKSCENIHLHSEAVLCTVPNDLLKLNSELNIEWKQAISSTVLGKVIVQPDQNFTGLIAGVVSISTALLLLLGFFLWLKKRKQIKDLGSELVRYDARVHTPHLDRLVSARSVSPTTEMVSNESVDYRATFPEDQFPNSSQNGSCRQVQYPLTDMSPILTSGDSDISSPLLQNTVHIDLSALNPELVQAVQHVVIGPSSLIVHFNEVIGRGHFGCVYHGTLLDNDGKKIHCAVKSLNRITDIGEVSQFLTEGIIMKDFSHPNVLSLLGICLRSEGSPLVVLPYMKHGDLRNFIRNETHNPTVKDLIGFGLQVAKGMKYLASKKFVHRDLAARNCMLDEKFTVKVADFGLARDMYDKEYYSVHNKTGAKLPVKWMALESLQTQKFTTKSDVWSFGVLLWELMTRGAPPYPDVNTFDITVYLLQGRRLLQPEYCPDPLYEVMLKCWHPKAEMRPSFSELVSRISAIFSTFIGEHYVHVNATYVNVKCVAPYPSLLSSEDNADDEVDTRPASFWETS

[13] = biological target: T3, Aurora kinase A (Homo sapiens) (UniProt O14965); test: Selectivity interaction (ActivX KiNativ screen (kinase selectivity in THP-1 cell lysates)) EUB0000639a STK6; format: subcellular; conditions: lysate, at 1 µM
T3 sequence (whole entry): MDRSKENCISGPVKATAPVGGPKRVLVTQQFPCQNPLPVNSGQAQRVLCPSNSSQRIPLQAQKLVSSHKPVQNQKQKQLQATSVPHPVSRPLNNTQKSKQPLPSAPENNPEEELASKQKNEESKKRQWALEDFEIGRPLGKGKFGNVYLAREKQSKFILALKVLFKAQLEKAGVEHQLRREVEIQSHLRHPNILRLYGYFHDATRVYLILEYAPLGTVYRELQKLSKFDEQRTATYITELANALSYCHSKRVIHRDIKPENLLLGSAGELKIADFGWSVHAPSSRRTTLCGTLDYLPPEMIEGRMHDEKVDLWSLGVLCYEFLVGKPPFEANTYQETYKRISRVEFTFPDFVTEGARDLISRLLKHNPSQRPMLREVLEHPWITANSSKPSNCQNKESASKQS

[14] = biological target: Serine/threonine-protein kinase tousled-like 2 (Homo sapiens) (UniProt Q86UE8); test: Selectivity interaction (ActivX KiNativ screen (kinase selectivity in THP-1 cell lysates)) EUB0000639a TLK2; format: subcellular; conditions: lysate, at 0.2 µM

Sequence of Serine/threonine-protein kinase 24 (Homo sapiens) (Q9Y6E0 whole entry, looked up, canonical isoform): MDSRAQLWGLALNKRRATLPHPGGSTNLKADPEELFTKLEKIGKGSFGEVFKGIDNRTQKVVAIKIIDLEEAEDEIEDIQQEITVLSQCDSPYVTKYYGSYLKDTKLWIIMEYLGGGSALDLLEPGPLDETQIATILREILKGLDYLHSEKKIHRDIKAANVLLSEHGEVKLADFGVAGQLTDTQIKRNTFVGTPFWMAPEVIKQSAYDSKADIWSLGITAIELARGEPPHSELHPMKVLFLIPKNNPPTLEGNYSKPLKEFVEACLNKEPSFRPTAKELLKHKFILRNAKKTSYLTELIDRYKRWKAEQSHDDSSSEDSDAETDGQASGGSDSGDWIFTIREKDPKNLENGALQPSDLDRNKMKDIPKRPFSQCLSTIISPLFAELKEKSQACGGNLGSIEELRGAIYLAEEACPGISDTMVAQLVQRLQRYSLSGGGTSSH

`COc1cc(N(C)c2ccnc3ccc(C(F)(F)F)cc23)cc(OC)c1OC` was tested, and the % binding [1] was 88%.

`CN(C(=O)c1cnn2cccnc12)c1cc2c(cc1N1CCOCC1)C(=O)N(C[C@@H](F)C(C)(C)O)C2` was tested, and the dTM [2] was -0.3 K.

`C=CC(=O)Nc1cc(-n2c(=O)ccc3cnc4ccc(-c5ccc(NS(C)(=O)=O)cc5)cc4c32)ccc1C` showed a % of control ([3]; at 1 µM) of 75% and a % of control ([3]; at 10 µM) of 44%.

`Cn1cc(-n2cnc3c(NCc4nc5cc(Cl)c(Cl)cc5[nH]4)nc(N4CCOCC4)nc32)cn1` gave a % of control [4] of -4.24%.

In the case of `Cc1cc([C@@H](C)Nc2ccccc2C(=O)O)c2nc(N3CCOCC3)cc(=O)n2c1` [AZD-6482], the % of control [5] is reported as 100%.

In the case of `CCC(=O)N1CC[C@H](Nc2ncnc3c2CN(c2cnc(OC)c(C(F)(F)F)c2)CC3)C1` [LENIOLISIB], the IC50 [6] is reported as > 10 µM.

`N#Cc1cccc(-c2c[nH]c3ncnc(N4CCOCC4)c23)c1` was tested, and the % of control [7] was 100%.

`CNC(=O)Nc1ccc(-c2nc(N3CC4CCC(C3)O4)c3cnn(C4CCC5(CC4)OCCO5)c3n2)cc1` showed a % of control [8] of 82% and a % of control [9] of 100%.

Compound `O[C@H]1CC[C@H](Nc2ncc3nc(Nc4c(F)cc(F)cc4F)n([C@H]4CCOC4)c3n2)CC1` has a % of control [10] of 100%.

`CC[C@@H]1[C@H](F)C(=O)N[C@@H]1COc1nccc2cc(C(N)=O)c(OC)cc12` [ZIMLOVISERTIB] gave a % of inhibition [11] of 13.2%, a % of inhibition [12] of 2.16% and a % of inhibition [13] of 9.2%. It also gave a % of inhibition [14] of 16.8%.
